In PubChem BioAssay (NCI):
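Cultured in 96-well plates, cells were exposed to test compound for 48 hours across five concentrations. At the GI50, growth is halved. TGI: concentration producing complete growth inhibition.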

Legend:
Experiment in all cases: NCI tumour cell line growth inhibition, 48 h
[1] = tested on: HOP-92 NSCLC
[2] = tested on: SW-620 colon
[3] = tested on: MOLT-4 leukemia
[4] = tested on: HCC-2998 colon
[5] = tested on: LOX IMVI melanoma
[6] = tested on: SK-OV-3 ovarian
[7] = tested on: UACC-62 melanoma
[8] = tested on: A549 NSCLC
[9] = tested on: OVCAR-3 ovarian
[10] = tested on: CAKI-1 renal
[11] = tested on: NCI/ADR-RES ovarian
[12] = tested on: NCI-H23 lung
[13] = tested on: 786-0 renal
[14] = tested on: U251 CNS
[15] = tested on: RPMI-8226 leukemia
[16] = tested on: KM12 colon
[17] = tested on: NCI-H522 lung
[18] = tested on: SNB-75 CNS
[19] = tested on: UO-31 renal
[20] = tested on: SN12C renal
[21] = tested on: SK-MEL-5 melanoma
[22] = tested on: HL-60(TB) leukemia
[23] = tested on: COLO 205 colon
[24] = tested on: NCI-H460 lung
[25] = tested on: MDA-MB-435
[26] = tested on: OVCAR-8 ovarian
[27] = tested on: SF-295 CNS
[28] = tested on: MDA-MB-231 breast
[29] = tested on: SR leukemia
[30] = tested on: ACHN renal
[31] = tested on: NCI-H226 lung
[32] = tested on: RXF 393 renal
[33] = tested on: DU-145 prostate
[34] = tested on: IGROV1 ovarian
[35] = tested on: A498 renal
[36] = tested on: SK-MEL-28 melanoma
[37] = tested on: HCT-15 colon
[38] = tested on: SK-MEL-2 melanoma
[39] = tested on: HT29 colon
[40] = tested on: PC-3 prostate
[41] = tested on: M14 melanoma
[42] = tested on: EKVX NSCLC
[43] = tested on: MDA-MB-468 breast
[44] = tested on: UACC-257 melanoma
[45] = tested on: HOP-62 NSCLC
[46] = tested on: CCRF-CEM leukemia
[47] = tested on: T-47D breast
[48] = tested on: OVCAR-4 ovarian
[49] = tested on: MCF7 breast
[50] = tested on: OVCAR-5 ovarian
[51] = tested on: K-562 leukemia
[52] = tested on: HS 578T breast
[53] = tested on: MALME-3M melanoma
[54] = tested on: SNB-19 CNS
[55] = tested on: BT-549 breast
[56] = tested on: TK-10 renal
[57] = tested on: SF-268 CNS
[58] = tested on: SF-539 CNS
[59] = tested on: HCT-116 colon

COc1ccc(CN2[C@H](C(=O)NCCCCCCC(=O)NO)Cc3c([nH]c4ccccc34)[C@H]2C2CC2)cc1
GI50 [1]: 1.29 µM
TGI [1]: 4.38 µM
GI50 [2]: 1.15 µM
TGI [2]: 3.53 µM
GI50 [3]: 1.96 µM
TGI [3]: > 20 µM
GI50 [4]: 1.61 µM
TGI [4]: 4.55 µM
GI50 [5]: 1.31 µM
TGI [5]: 3.59 µM
GI50 [6]: 1.17 µM
TGI [6]: 3.28 µM
GI50 [7]: 1.01 µM
TGI [7]: 2.56 µM
GI50 [8]: 2.15 µM
TGI [8]: > 13 µM
GI50 [9]: 1.89 µM
TGI [9]: 8.38 µM
GI50 [10]: 1.48 µM
TGI [10]: 7.56 µM
GI50 [11]: 5.42 µM
TGI [11]: > 20 µM
GI50 [12]: 1.88 µM
TGI [12]: 8.19 µM
GI50 [13]: 3.39 µM
TGI [13]: > 20 µM
GI50 [14]: 1.81 µM
TGI [14]: 7.26 µM
GI50 [15]: 1.87 µM
TGI [15]: > 20 µM
GI50 [16]: 2.14 µM
TGI [16]: > 14.2 µM
GI50 [17]: 1.33 µM
TGI [17]: 5.21 µM
GI50 [18]: 0.397 µM
TGI [18]: > 5.95 µM
GI50 [19]: 2.28 µM
TGI [19]: 9.5 µM
GI50 [20]: 2.19 µM
TGI [20]: 8.58 µM
GI50 [21]: 1.25 µM
TGI [21]: 2.97 µM
GI50 [22]: 2.12 µM
TGI [22]: > 20 µM
GI50 [23]: 1.63 µM
TGI [23]: 4.87 µM
GI50 [24]: 1.78 µM
TGI [24]: > 20 µM
GI50 [25]: 1.16 µM
TGI [25]: 3.49 µM
GI50 [26]: 1.95 µM
TGI [26]: > 10.2 µM
GI50 [27]: 1.42 µM
TGI [27]: 4.33 µM
GI50 [28]: 1.41 µM
TGI [28]: 4.2 µM
GI50 [29]: 1.12 µM
TGI [29]: > 20 µM
GI50 [30]: 1.72 µM
TGI [30]: 6.11 µM
GI50 [31]: 2.9 µM
TGI [31]: > 16.5 µM
GI50 [32]: 0.898 µM
TGI [32]: 2.45 µM
GI50 [33]: 2.12 µM
TGI [33]: > 20 µM
GI50 [34]: 1.41 µM
TGI [34]: 4.69 µM
GI50 [35]: 1.13 µM
TGI [35]: 4.2 µM
GI50 [36]: 1.66 µM
TGI [36]: 6.85 µM
GI50 [37]: 4.34 µM
TGI [37]: > 16.5 µM
GI50 [38]: 0.998 µM
TGI [38]: 18.1 µM
GI50 [39]: 1.35 µM
TGI [39]: 10.6 µM
GI50 [40]: 1.88 µM
TGI [40]: > 20 µM
GI50 [41]: 2.02 µM
TGI [41]: > 20 µM
GI50 [42]: 2.25 µM
TGI [42]: > 20 µM
GI50 [43]: 1.02 µM
TGI [43]: > 5.34 µM
GI50 [44]: 1.76 µM
TGI [44]: > 9.72 µM
GI50 [45]: 2.16 µM
TGI [45]: > 10.6 µM
GI50 [46]: 1.25 µM
TGI [46]: > 20 µM
GI50 [47]: 1.52 µM
TGI [47]: 4.71 µM
GI50 [48]: 5.24 µM
TGI [48]: > 20 µM
GI50 [49]: 1.8 µM
TGI [49]: > 16.1 µM
GI50 [50]: 1.09 µM
TGI [50]: 3.18 µM
GI50 [51]: 1.86 µM
TGI [51]: > 20 µM
GI50 [52]: 1.65 µM
TGI [52]: 10.7 µM
GI50 [53]: 0.946 µM
TGI [53]: 3.84 µM
GI50 [54]: 2.11 µM
TGI [54]: 12.5 µM
GI50 [55]: 5.34 µM
TGI [55]: > 19.1 µM
GI50 [56]: 1.39 µM
TGI [56]: 7.36 µM
GI50 [57]: 2.87 µM
TGI [57]: > 13.7 µM
GI50 [58]: 1.82 µM
TGI [58]: 8.74 µM
GI50 [59]: 1.16 µM
TGI [59]: > 13.3 µM
